Laboratory results as given in patent publication US9986740B2, “Methods of identifying insect-TRPA1 modulators” (BRANDEIS UNIVERSITY, priority 2010, dated 2018).
Positions count from the first letter of the chain named. Entries after “also recorded” stand apart in the source; their conditions may differ. Like-named read-outs stand apart in the source and are kept apart here. Blank lines part the entries; values can stand above or below the molecule they belong to.

Tests used:
dTRPA1 [1] = biological target: T1, dTRPA1 (Drosophila melanogaster, UniProt Q7Z020); assay: Two-electrode voltage clamping on Xenopus laevis oocytes expressing dTRPA1; assay type: cell-based
T1 sequence (Q7Z020 1-1197): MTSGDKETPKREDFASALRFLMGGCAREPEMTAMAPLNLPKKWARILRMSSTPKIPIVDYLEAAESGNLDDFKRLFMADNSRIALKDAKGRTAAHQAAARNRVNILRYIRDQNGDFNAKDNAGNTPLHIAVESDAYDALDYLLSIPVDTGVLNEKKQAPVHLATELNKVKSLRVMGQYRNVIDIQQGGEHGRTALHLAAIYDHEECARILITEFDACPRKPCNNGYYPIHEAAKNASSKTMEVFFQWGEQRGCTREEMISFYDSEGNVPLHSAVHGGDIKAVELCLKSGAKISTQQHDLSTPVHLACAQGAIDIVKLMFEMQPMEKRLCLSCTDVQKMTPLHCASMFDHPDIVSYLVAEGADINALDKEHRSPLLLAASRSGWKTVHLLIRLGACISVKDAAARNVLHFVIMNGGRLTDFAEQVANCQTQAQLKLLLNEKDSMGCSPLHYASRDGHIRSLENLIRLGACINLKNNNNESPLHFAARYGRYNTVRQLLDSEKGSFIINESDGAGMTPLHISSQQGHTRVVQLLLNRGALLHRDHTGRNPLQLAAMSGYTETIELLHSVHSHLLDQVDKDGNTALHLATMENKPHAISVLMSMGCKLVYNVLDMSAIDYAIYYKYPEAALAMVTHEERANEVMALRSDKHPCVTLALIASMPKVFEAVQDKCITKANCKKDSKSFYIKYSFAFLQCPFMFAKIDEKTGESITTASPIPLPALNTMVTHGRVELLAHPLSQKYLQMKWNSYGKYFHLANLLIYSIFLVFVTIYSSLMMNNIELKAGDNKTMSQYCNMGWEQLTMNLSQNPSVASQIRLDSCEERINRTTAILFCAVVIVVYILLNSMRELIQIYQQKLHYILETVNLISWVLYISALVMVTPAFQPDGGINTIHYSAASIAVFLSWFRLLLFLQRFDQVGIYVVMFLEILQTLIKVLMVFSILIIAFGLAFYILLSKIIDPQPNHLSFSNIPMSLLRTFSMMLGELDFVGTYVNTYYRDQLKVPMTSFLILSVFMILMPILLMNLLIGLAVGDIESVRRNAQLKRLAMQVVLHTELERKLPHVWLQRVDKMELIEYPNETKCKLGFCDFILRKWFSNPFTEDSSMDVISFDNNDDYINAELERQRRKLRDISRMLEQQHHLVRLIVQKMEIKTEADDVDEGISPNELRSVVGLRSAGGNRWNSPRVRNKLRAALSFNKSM

mammalian TRPA1s = conditions: conserved cysteine-independent; cited from earlier work
Drosophila flies = assay: Proboscis extension response (PER) behavioral assay; assay type: in vivo, Drosophila melanogaster; conditions: for Effect on PER in dTrpA1 loss-of-function mutants / Effect on PER in painless mutants / Effect on proboscis extension response (PER) / feeding: ingestion permitted; for Acceptance on first offering: first of five tastant offerings; for Effect on PER in painless mutants: painless mutant flies; for Effect on proboscis extension response (PER) / feeding: 350 mM sucrose with 2 mM AITC
uninjected oocytes = assay: Two-electrode voltage clamping on uninjected oocytes; assay type: cell-based, Xenopus laevis; conditions: 3 mM AITC, 1 mM CA, 0.1 mM NMM
dTRPA1 [2] = biological target: T1, dTRPA1; conditions: cited from earlier work
agTRPA1 = conditions: cited from earlier work
nematodes = conditions: in vivo; cited from earlier work
mammalian nociceptors = conditions: cited from earlier work
flies = conditions: in vivo; cited from earlier work
dTRPA1-2C = biological target: T2, dTRPA1-2C (Drosophila melanogaster, UniProt Q7Z020, C650S/C670S); assay: Two-electrode voltage clamping on oocytes expressing mutant dTRPA1-2C; assay type: cell-based; conditions: cysteines 650 and 670 mutated to serines; 0.1, 0.5, 1.0 mM AITC
T2 construct: expressed in transfected cells; host or cells: Xenopus laevis oocytes
T2 sequence (Q7Z020 1-1197 C650S/C670S): T1 sequence (Q7Z020 1-1197) with C650S, C670S
Description: Oocyte and larval physiology were performed largely as described in Hamada, et al., Nature 454, 217-220 (2008) and Pulver, et al., J Neurophysiol 101, 3075-3088 (2009), with additional details provided in below. Chemical sensitivities of wild type and mutant (dTRPA1-2C) channels were assessed by normalizing all currents to currents observed at 1 mM AITC.
Agonist-evoked dTRPA1 currents were recorded as previously described in (Hamada, et al., Nature 454, 217-220 (2008)), with the following modifications. Agonists of interest were added to the oocyte perfusion buffer (96 mM NaCl, 1 mM MgCl2, 4 mM KCl, and 5 mM HEPES, pH 7.6). Voltage was initially held at −60 mV, and a 300-ms voltage ramp (−60 mV to 60 mV) per sec was applied to dTRPA1- or AgTRPA1-expressing oocytes during perfusion of agonist-containing buffer. Typical oocyte resting membrane potentials were between −25 and −60 mV. […] EC50s for wild type dTRPA1 channels were obtained at −60 mV, with AITC provided for 60 sec with 30 sec intervals between increasing concentrations.
Substitutions of cysteine/lysine residues in dTrpA1 were made by swapping a region of wild type cDNA sequence including codons of cysteine or lysine with mutated cassettes. […]

[3] = wild-type dTRPA1 in Xenopus oocytes
[4] = wild type flies, 10 mM NMM or 6 mM CA

Activation of dTRPA1 (dTRPA1 [1]; [3]): failed to activate
Molecule: CCN(CC)C(=O)c1cccc(C)c1 [DEET, N,N-diethyl-m-toluamide]

Molecule: 2-aminoethoxydiphenyl borate [2-APB]
Activity on mammalian TRPA1s (mammalian TRPA1s): agonists

Molecule: CN1C(=O)C=CC1=O [NMM, N-methyl-maleimide]
Effect on PER in dTrpA1 loss-of-function mutants (Drosophila flies): no reduction
Acceptance on first offering (Drosophila flies): usually accepted
Effect on ingestion in previously published ingestion-independent PER assay (Drosophila flies; ingestion-independent PER assay of Al-Anzi et al.): no effect
Effect on PER in painless mutants (Drosophila flies): significantly inhibited
Change of the compound's effect on PER upon dTRPA1 knockdown (Drosophila flies; tissue-specific dTRPA1 RNAi with Dll-Gal4, MJ94-Gal4 or Gr66a-Gal4, 10 mM NMM in 350 mM sucrose): robustly reduced
Effect on proboscis extension response (PER) / feeding (Drosophila flies; [4]): robustly inhibited
Response of uninjected oocytes (uninjected oocytes): did not respond

Activation of dTRPA1 (dTRPA1 [1]; [3]): failed to activate
Molecule: CCCCN(CCC(=O)OCC)C(C)=O [IR-3535]

Molecule: CN1CCCC1c1cccnc1 (centres unmarked) [nicotine]
Activation of dTRPA1 (dTRPA1 [1]): did not activate
Response of dTRPA1 expressing oocytes (dTRPA1 [1]): did not respond
Activity on mammalian TRPA1s (mammalian TRPA1s): agonists

Inhibition of agonist-elicited currents (dTRPA1 [1]; 100 μM ruthenium red applied): inhibited
Molecule: N.N.N.N.N.N.N.N.N.N.N.N.N.N.[Cl-].[Cl-].[Cl-].[Cl-].[Cl-].[Cl-].[O-2].[O-2].[Ru+3].[Ru+3].[Ru+4] [ruthenium red]
Inhibition of warmth-activated dTRPA1 currents (dTRPA1 [2]): partially inhibits
Inhibition of warmth-activated agTRPA1 currents (agTRPA1): partially inhibits

Molecule: COc1cc(CNC(=O)CCCC/C=C/C(C)C)ccc1O [capsaicin]
Acute response in nematodes (nematodes): no acute response
Effect on mammalian nociceptors (mammalian nociceptors): activates
Acute response in flies (flies): no acute response

Molecule: CC1(C)[C@H](C(=O)O[C@H](C#N)c2cccc(Oc3ccccc3)c2)[C@@H]1C=C(Br)Br [deltamethrin]
Activation of dTRPA1 (dTRPA1 [1]): failed to activate

Molecule: C=CCN=C=S [AITC, allyl isothiocyanate]
Activation of dTRPA1 (dTRPA1 [1]): activated
AITC sensitivity of dTRPA1-2C versus wild type (dTRPA1-2C): low sensitivity; also recorded: significantly decreased
Effect on PER in dTrpA1 loss-of-function mutants (Drosophila flies): no reduction
Acceptance on first offering (Drosophila flies): usually accepted
Effect on PER in painless mutants (Drosophila flies): significantly inhibited
Effect on proboscis extension response (PER) / feeding (Drosophila flies; [4]): dramatically inhibited
Response of uninjected oocytes (uninjected oocytes): did not respond

Molecule: Cn1c(=O)c2c(ncn2C)n(C)c1=O [caffeine]
Effect on PER in dTrpA1 loss-of-function mutants (Drosophila flies): inhibited
Effect on PER when only leg contact with food permitted (Drosophila flies; wild type flies, tastant contacts only legs, 350 mM sucrose with 100 mM caffeine, 2 mM AITC, 10 mM NMM or 6 mM CA): robustly inhibited
